Test results published in patent US20250049776A1, “AUTOPHAGY INDUCING COMPOUNDS AND USES THEREOF, IN PARTICULAR FOR A SYSTEMIC TREATMENT OF DISEASES AND CONDITIONS” (Samsara Therapeutics Inc., priority 2021, published 2025).
Where a name gives a salt, the structure may show the parent alone.

System: C3-PMP22 transgenic mice (B6.Cg-Tg(PMP22)C3Fbas/J)
Assay: Mouse model of Charcot-Marie-Tooth 1A (CMT1A)
Type: in vivo
Source text: Compound 163 was selected as an example compound of this invention to be evaluated in this model. This model (run by In vivex SAS, France) uses C3-PMP22 transgenic mice (B6·Cg-Tg(PMP22)C3Fbas/J) which express three copies of a wild-type human peripheral myelin protein 22 (PMP22) gene. These mice present an age-dependent demyelinating neuropathy characterized by predominantly distal loss of strength and sensation. C3-PMP mice show no overt clinical signs at 3 weeks and develop mild neuromuscular impairment in an age-dependent manner. They have stable, low nerve conduction velocities similar to adults with human CMT1A. Myelination is delayed in these mice, and they contain reduced numbers of myelinated fibres at 3 weeks of age.
• Animal characteristics: • Sex/Species/Strain: B6.Cg-Tg(PMP22)C3Fbas/JMale • Age: 3 weeks old • Supplier: Jackson Laboratory (USA) • Approximate weight at initiation of treatment: 19.0 g±2.5 g • Animal number: 6 mice per group • Animal identification: At the beginning of the study, animals were identified with a number on the tail. […] Clinical signs and mortality were recorded daily. Body weight was determined twice a week. • Study Outline: • Dose: 30 mg/kg • Administration: Oral gavage • Readouts: • i) Rotarod (neuromuscular performance) • ii) Sciatic nerve electrophysiology (EMG) • iii) PMP22 analysis by western blot • iv) Histology of sciatic nerve • Experimental time duration: Readouts measures at 1 and 2 months old. • Baseline rotarod and EMG readouts at 1 month old • Rotarod and EMG readouts at 2 months old • Western blot for PMP22 and histopathology of sciatic nerve at 2 months old • Vehicle used for test Compound 163: 10% DMSO/5% Cremophor R H 40 and 85% of 10% HP-β-CD in water (v/v) • Vehicle control group: vehicle only (non-treated control) • Statistics: Statistical analyses were performed using Prism software. A probability less than 5% (p<0.05) was considered as significant.
Sciatic nerve electrophysiology. Electromyography was performed on mice anesthetized with ketamine/xylazine mixture. A pair of steel needle electrodes (AD Instruments, MLA1302) were placed subcutaneously along the nerve at the sciatic notch (proximal stimulation). A second pair of electrodes were placed along the tibial nerve above the ankle (distal stimulation). Supramaximal square-wave pulses, lasting 10 ms at 1 mA were delivered using a PowerLab 26T (AD Instruments). Compound muscle action potential (CMAP) was recorded from the intrinsic foot muscles using steel electrodes. Both amplitudes and latencies of CMAP were determined. The distance between the 2 sites of stimulation was measured alongside the skin surface with fully extended legs, and nerve conduction velocities (NCVs) were calculated automatically from sciatic nerve latency measurements using Excel.
Rotarod. A rotating rod apparatus (Bioseb, France) was used to measure neuromuscular coordination and balance. Mice were first given a pretraining trial to familiarize them with the rotating rod. […] Each animal underwent 3 trials a day. For each day, values from the 3 trials were averaged for each animal, and then averaged for each group.
After electrophysiology analysis and animal sacrifice, the left sciatic nerve of all animals were sampled, solubilized in 4° C. RIPA lysis buffer completed with protease inhibitors (Fisher Scientific, France), sonicated three times during 10 s on ice (Microson ultrasonic cell disruptorXL, Microsonic) and centrifuged for 30 min at 10,000 rpm at 4° C. 50 μL of the supernatant was sampled and total protein was quantified by NanoDrop using bovine serum albumin dilutions as standard. Then, ten micrograms of protein samples were denatured using Laemmli/β-mercaptoethanol (Merck, S3401) incubation at 95° C. during 10 minutes, separated on a denaturing 10% SDS-polyacrylamide gel and transferred onto nitrocellulose membranes. Membranes were blocked for 60 min with 5 mL of Licor Blocking Buffer. […]

[1] = CMT1A mice at 2 months old, 30 mg/kg oral gavage twice a day during one month
[2] = sciatic nerve histology, CMT1A mice at 2 months old, 30 mg/kg oral gavage twice a day

In the case of `CC(C)N(C(=O)c1csc(-c2cnn(-c3ccccc3)c2)n1)C1CCNCC1` [Compound 163, N-isopropyl-2-(1-phenyl-1H-pyrazol-4-yl)-N-(piperidin-4-yl)thiazole-4-carboxamide hydrochloride], the “increase in CMAP amplitude compared to the vehicle group” value [1] is reported as 86%, the “increase in mean rotarod latency compared to the vehicle group” value [1] is reported as 133% and the “increase in NCV compared to the vehicle group” value (CMT1A mice at 2 months old, 30 mg/kg oral gavage twice a day, not statistically significant) is reported as 94%. The “differences on body weight between groups” value (CMT1A mice, 30 mg/kg oral gavage twice a day) was “No significant differences”, the “decrease in the g-ratio compared to the vehicle group” value [2] was 22% and the “increase in the number of myelinating axons compared to the vehicle group” value [2] was 64%. For the same compound, the “increase in the axonal diameter compared to the vehicle group” value (sciatic nerve histology, CMT1A mice at 2 months old, 30 mg/kg oral gavage twice a day, not statistically significant) was 45% and the “decrease in the level of PMP22 compared to the vehicle group” value (sciatic nerve western blot, CMT1A mice at 2 months old, 30 mg/kg oral gavage twice a day) was 33%.
